Data on three compounds can be found in patent publication US20240150705A1, “POLYPHENOL INFUSED PROBIOTICS AND METHODS FOR IMPROVED GUT SURVIVABILITY, PERSISTENCE AND COLONIZATION” (THE REGENTS OF THE UNIVERSITY OF CALIFORNIA, priority 2021, published 2024).

“Also recorded” adds a separate entry of the source.

Holding throughout (assay type): cell-based
The test system of assay [1] is L. casei, L. paracasei and L. rhamnosus cells. In words: metabolic activity by resazurin fluorescence assay after simulated gastric fluid. Conditions: infused L. casei cells, SGF. The protocol:
For this assay, 6 log CFUs/ml of cells (with and without infused phenolic actives) in selective culture media was prepared. 1 mL of each of the samples were added to a flat bottom 24 well culture plates and 50 μM of resazurin was added to each well plates. Plates were sealed with PCR sealing films inside anerobic cabinet to maintain in-situ anaerobic conditions and were immediately incubated at 37° C. for 16 h. Fluorescence data was collected each 5 min at 580 nm (λex=530 nm). The reduction of resazurin was evaluated by the assay. After cells were treated with simulated gastric fluid, 1 mL of each samples was centrifugated (16,000×g for 2 min) and resuspended in 1 mL of MRS broth containing 50 μM of resazurin. Then, plate was incubated at 37° C. for 16 h and read each 5 min (530 nm/580 nm). […] The reduction of resazurin to resorufin (fluorescent form) was measured to correlate with the metabolic activity of three types of probiotic cells with different infused polyphenols and conditions, as shown in FIG. 7 through FIG. 20. The production of resorufin increases the intensity of fluorescence, while the reduction of the peak is related with the production of hydroresorufin.

Assay [2] relates to L. paracasei (LP), Lactobacillus casei (LC) and L. rhamnosus (LR) probiotic cells. In words: survivability during simulated gastrointestinal treatments (SGF 2 h, then SIF 2 h). Particulars: for Stability of probiotics against gastric pH and bile salt tolerance: infusion in cells. The protocol: To illustrate the role of phenolic bioactives in influencing cell viability, changes in the intracellular pH and interactions of bile salts with cells were measured after simulated gastric and intestinal treatments respectively. Survivability of cells with and without infused plant extracts were evaluated during simulated gastrointestinal treatments under anaerobic conditions. Simulated gastric fluids (SGF, pH=3) were prepared by adding 0.5% w/v sodium chloride, hydrochloric acid to maintain pH and 3.2 mg/ml pepsin. 1 g of selected bacterial cells with and without infused plant extracts were separately incubated in SGF for 2 h at 37° C. and 100 rpm. After gastric treatment, the cells were pelleted down by centrifuging at 5000 rpm for 2 min and then resuspended in the simulated intestinal fluids (SIF) containing 3.33 mg/mL calcium chloride, 5 g/L sodium chloride, 10 mM bile salts and pancreatin (100 U/ml) in 0.025 M potassium phosphate buffer (pH=7). Digestion mixtures were incubated at 37° C. and 100 rpm for 2 h. After the simulated gastric and intestinal digestions, both the phenolic infused cells and control cells were isolated by centrifuging at 5000 rpm for 2 min and will be washed three times with autoclaved 1×PBS. Viable cells were enumerated after serial dilutions on selective media plates. The viability of cells were measured in triplicates and the results of these measurements were averaged. Live probiotic cells must reach the colon alive for colonization and related health benefits. These figures plot survivability of L. paracasei (LP), Lactobacillus casei (LC) and L. rhamnosus (LR) probiotic cells with and without infused plant extracts during simulated gastrointestinal treatments with simulated gastric fluid (SGF) for 2 h, followed by the treatment with simulated intestinal fluid (SIF) for next 2 h.

A further assay relates to L. casei cells. In words: survivability of model probiotic L. casei cells loaded with other polyphenols or mixed with catechin during simulated digestion (FIG. 6). Conditions: for survivability of probiotic bacteria during simulated gastro-intestinal digestion: L. casei cells infused. The protocol: To illustrate the role of phenolic bioactives in influencing cell viability, changes in the intracellular pH and interactions of bile salts with cells were measured after simulated gastric and intestinal treatments respectively. Survivability of cells with and without infused plant extracts were evaluated during simulated gastrointestinal treatments under anaerobic conditions. Simulated gastric fluids (SGF, pH=3) were prepared by adding 0.5% w/v sodium chloride, hydrochloric acid to maintain pH and 3.2 mg/ml pepsin. 1 g of selected bacterial cells with and without infused plant extracts were separately incubated in SGF for 2 h at 37° C. and 100 rpm.
After gastric treatment, the cells were pelleted down by centrifuging at 5000 rpm for 2 min and then resuspended in the simulated intestinal fluids (SIF) containing 3.33 mg/mL calcium chloride, 5 g/L sodium chloride, 10 mM bile salts and pancreatin (100 U/ml) in 0.025 M potassium phosphate buffer (pH=7). Digestion mixtures were incubated at 37° C. and 100 rpm for 2 h. After the simulated gastric and intestinal digestions, both the phenolic infused cells and control cells were isolated by centrifuging at 5000 rpm for 2 min and will be washed three times with autoclaved 1×PBS. Viable cells were enumerated after serial dilutions on selective media plates. The viability of cells were measured in triplicates and the results of these measurements were averaged.
Survivability of probiotic cells was not improved if polyphenols were not infused in cells but only added in the same amount to the gastric fluid.

On to `COc1cc(/C=C/C(=O)CC(=O)/C=C/c2ccc(O)c(OC)c2)ccc1O` [curcumin], for which the “metabolic activity after simulated gastric treatment” value in assay [1] was “further suppressed”. Besides, in assay [2], the “Stability of probiotics against gastric pH and bile salt tolerance” value (from here on “Stability of probiotics”) is recorded as “enhanced”. Also, the “survivability of probiotic bacteria during simulated gastro-intestinal digestion” value in the assay with L. casei cells is listed as “Enhanced stability; also recorded: significantly enhance survivability”.
Turning to `O=c1c(O)c(-c2ccc(O)c(O)c2)oc2cc(O)ccc12` [fisetin], the “Stability of probiotics” value in assay [2] is given as “enhanced”. Moreover, in the assay with L. casei cells, the “survivability of probiotic bacteria during simulated gastro-intestinal digestion” value is given as “Enhanced stability; also recorded: significantly enhance survivability”.
For the compound catechin, the “survivability / stability during simulated gastro-intestinal digestion” value in assay [2] (infused cells, SGF then SIF) is listed as “stable; also recorded: maintained their population”. The “Stability of probiotics” value in assay [2] was “enhanced”. Further, the “survivability of probiotic bacteria during simulated digestion” value in the assay on L. casei cells (simply mixed with cells or added to gastric fluid, not infused) is on record as “no significant improvement in survivability”.
